Counter-ions that a name gives are not always drawn.

What is called IC50 is the midpoint of a concentration-inhibition curve. A low value points to higher potency.

For data set [1], the system named is human lung carcinoma cell line A549. The data set can be described thus: In vitro cytotoxicity, clone forming assay in A549 cells. The format is cell-based. Particulars: A549, 24 h exposure, 12 days cultivation. How it is done: In vitro cytotoxicity of compounds (+)-8a-e and (+)-4a-e: Adherent cells of line A549 were sown in triplicate in 6 multiwell plates at concentrations of 10^2, 10^3, 10^4, and 10^5 cells per cavity. Culture medium was removed after 24 h and cells were washed hi the incubation medium Ultraculture (UC, serum-free special medium, purchased from BioWhittaker Europe, Verviers, Belgium). Incubation with compounds (+)-8a-e and (+)-4a-e was then performed in Ultraculture medium at various concentrations for 24 h. All substances were used as freshly prepared solutions in DMSO (Merck, Darmstadt, Germany) diluted with incubation medium to a final concentration of 1% DMSO in the wells. After 24 h of exposure the test substance was removed and the cells were washed with fresh medium. Cultivation was done at 37° C. and 7.5% CO2 in air for 12 days. The medium was removed and the clones were dried and stained with Löffler's methylene blue (Merck, Darmstadt, Germany). They were then counted macroscopically.
The IC50 values are based on the relative clone forming rate, which was determined according to the following formula: relative clone forming rate [%]=100×(number of clones counted after exposure)/(number of clones counted in the control).
Liberation of the drugs from their glycosidic prodrugs was achieved by addition of 4.0 U·mL^−1 β-D-galactosidase (EC 3.2.1.23, Grade X, purchased from Sigma Germany, Deisenhofen, Germany) to the cells during incubation with the substances.

Data set [2] concerns MDA-MB-231 cells (estrogen-independent human breast cancer cell line). The data set can be described thus: ADEPT in vivo experiment, orthotopic breast tumor SCID mouse model. The procedure: Compound (+)-8a was evaluated in an orthotopic breast tumor SCID mouse model using the ADEPT concept. Female SCID mice were inoculated with 1×10^6 MDA-MB-231 cells (estrogen-independent human breast cancer cell line) suspended in 25 μl sterile PBS in the mammary fad pat of the 4th mammary complex. Tumors were allowed to grow and ADEPT therapy was started after tumor volumes reached a detectable size. Mice were treated according to the treatment schedule in FIG. 17 and received two treatment cycles of a monoclonal anti-human urokinase plasminogen activator receptor (uPAR) antibody conjugated with β-Galactosidase, uPAR*β-Gal, in PBS followed by three injections with conjugate (+)-8a in 1% DMSO/NaCl solution. Control groups received either antibody-enzyme and 1% DMSO/NaCl solution (antibody-enzyme only group), PBS and conjugate (conjugate only group), or PBS and 1% DMSO/NaCl solution (control group).
In vivo evaluation of compound (+)-8a in an orthotopic breast tumor SCID mouse model using the ADEPT concept: Before tumor cell implantation, female SCID mice were anesthetized by peritoneal injection of 75 mg/kg ketamine hydrochloride with 15 mg/kg xylazine. 1×10^6 MDA-MB-231 cells (estrogen-independent human breast cancer cell line) suspended in 25 μl sterile phosphate-buffered saline (PBS) were then implanted into the mammary fad pat of the 4th mammary complex. After implantation, mice were inspected daily for body weight loss, general condition, and tumor formation. On day 21, animals were randomized in groups of 5-12 mice (control, antibody-enzyme only, prodrug only, and ADEPT therapy). On days 22 and 30, mice were injected intravenously with PBS (control, prodrug only groups) or 50 μg of a monoclonal anti-human urokinase plasminogen activator receptor (uPAR) antibody conjugated with β-Galactosidase, uPAR*β-Gal, in PBS (antibody-enzyme only, ADEPT therapy groups). On days 24, 26, 28, 32, 34, and 36, mice were injected intravenously with 1% DMSO/NaCl solution (control, antibody-enzyme only groups) or 104 μg of (+)-8a in 1% DMSO/NaCl solution (prodrug only, ADEPT therapy groups). Mice were sacrificed on day 38 and tumors were excised, weighed, placed in phosphate-buffered 4% formalin for 16 hours at room temperature, and embedded in paraffin. Tissue sections (2.5 μm) were obtained, stained with hematoxylin and eosin (H & E), and inspected by routine microscopic examinations. For immunohistochemistry, 2.5 μm sections from formalin-fixed and paraffin-embedded tissues, were mounted on slides, deparaffinized in xylene and rehydrated in ethanol/water dilutions. Slides for Ki67 staining were pretreated by boiling in a microwave oven (5×5 min) in citrate buffer (pH 6.0) for antigen retrieval. Endogenous peroxidases were inactivated by treatment with 3% hydrogen peroxide for 10 min. Tris-buffered 10% rabbit serum solution (Dako, Hamburg, Germany, No. X 0902) was then added to block nonspecific protein binding and slides were incubated with murine anti-human Ki67 (Dianova, Hamburg, Germany, No. dia 505) for 60 min (2 μg/ml) followed by exposure to biotinylated rabbit anti-mouse F(ab′)2-fragment (Dako, No. E 0413, 16.8 μg/ml) for 30 min. Sections were then incubated with avidin-peroxidase solution (Dako, No. P 364), stained with aminoethylcarbazole (AEC substrate solution, Sigma), rinsed in water, and finally counterstained with hematoxylin.

The mark [3] stands for this setting: with addition of 4.0 U/mL β-D-galactosidase.
Setting [4] is: without addition of β-D-galactosidase.

For the compound `C[C@@H](Cl)[C@@H]1CN(C(=O)c2cc3cc(OCCN(C)C)ccc3[nH]2)c2cc(O[C@@H]3O[C@H](CO)[C@H](O)[C@H](O)[C@H]3O)c3ccccc3c21` [(1S,10R)-8a and (1R,10S)-8a′, [(1,10)-anti-1-(10-Chloroethyl)-3-[(5-(2-(N,N-dimethylamino)ethoxy)-indol-2-yl)carbonyl]-1,2-dihydro-3H-benz[e]indol-5-yl]-β-D-galactopyranoside], the IC50 in data set [1] (setting [3]) was 1.2 nM; in data set [1] (setting [4]), 7900 nM.

Turning to `CC(Cl)C1CN(C(=O)c2cc3cc(OCC4CCN(C)CC4)ccc3[nH]2)c2cc(O[C@@H]3O[C@H](CO)[C@H](O)[C@H](O)[C@H]3O)c3ccccc3c21` (single isomer, unassigned; (+)) [(+)-8d, [(+)-(1,10)-anti-1-(10-Chloroethyl)-3-[(5-((1-methylpiperidin-4-yl)methoxy)-indol-2-yl)carbonyl]-1,2-dihydro-3H-benz[e]indol-5-yl]-β-D-galactopyranoside], the half-maximal inhibitory concentration (IC50) in data set [1] (setting [3]) came out at 0.75 nM; in data set [1] (setting [4]), 830 nM.

`C[C@@H](Cl)[C@@H]1CN(C(=O)c2cc3cc(OCCN(C)C)ccc3[nH]2)c2cc(O[C@@H]3O[C@H](CO)[C@H](O)[C@H](O)[C@H]3O)c3ccccc3c21` [(+)-8a, [(1,10)-anti-1-(10-Chloroethyl)-3-[(5-(2-(N,N-dimethylamino)ethoxy)-indol-2-yl)carbonyl]-1,2-dihydro-3H-benz[e]indol-5-yl]-β-D-galactopyranoside]: the IC50 in data set [1] (with addition of 4.0 U/mL β-D-galactosidase, listed as (1S,10R)-8a) came out at 0.75 nM; in data set [1] (without addition of β-D-galactosidase, listed as (1S,10R)-8a), 3600 nM. Besides, the “average primary tumor volume” value in data set [2] (ADEPT therapy (uPAR*β-Gal followed by (+)-8a i.v.), after one treatment cycle) is 0.23±0.07 cm^3. The mean tumor volume in data set [2] (ADEPT therapy (uPAR*β-Gal followed by (+)-8a i.v.), after two treatment cycles) came to 0.33±0.13 cm^3. Moreover, the “necrotic tissue within tumors” value in data set [2] (ADEPT therapy versus vehicle-treated mice) is listed as “more necrotic tissue within tumors”. Moreover, the tolerability result in data set [2] (ADEPT therapy, all animals) is listed as “well tolerated”. Moreover, the blood parameters result in data set [2] (treated mice compared to controls) was “not altered”. Further, the “inhibitory effect on tumor growth with respect to vehicle control” value in data set [2] (treatment with the substance alone (antibody-enzyme only or conjugate only group)) was “no inhibitory effect”.

For `COc1cc2[nH]c(C(=O)N3C[C@@H]([C@@H](C)Cl)c4c3cc(O[C@@H]3O[C@H](CO)[C@H](O)[C@H](O)[C@H]3O)c3ccccc43)cc2cc1OCCN(C)C` [(+)-8c, [(+)-(1S,10R)-1-(10-Chloroethyl)-3-[(5-(2-(N,N-dimethylamino)ethoxy)-6-methoxy-indol-2-yl)carbonyl]-1,2-dihydro-3H-benz[e]indol-5-yl]-β-D-galactopyranoside], the IC50 in data set [1] (setting [3]) amounted to 0.22 nM; in data set [1] (setting [4]), 940 nM.

Compound `CC(Cl)C1CN(C(=O)c2cc3cc(OCCN4CCOCC4)ccc3[nH]2)c2cc(O)c3ccccc3c21` (single isomer, unassigned; (+)) [(+)-4b, (+)-{(1,10)-anti-1-(10-Chloroethyl)-5-hydroxy-3-[(5-(2-(morpholin-4-yl)ethoxy)indol-2-yl)carbonyl]-1,2-dihydro-3H-benz[e]indole-hydrochloride}] showed an IC50 in data set [1] (setting [4]) of 3.7 nM.

In turn, `CC(Cl)C1CN(C(=O)c2cc3cc(OCCN(C)C)ccc3[nH]2)c2cc(O)c3ccccc3c21` (single isomer, unassigned; (+)) [(+)-4a, (1,10)-anti-1-(10-Chloroethyl)-5-hydroxy-3-[(5-(2-(N,N-dimethylamino)ethoxy)indol-2-yl)carbonyl]-1,2-dihydro-3H-benz[e]indole-hydrochloride] came in with an IC50 in data set [1] (setting [4]) of 0.75 nM.

Regarding `C[C@@H](Cl)[C@@H]1CN(C(=O)c2cc3cc(NC(=O)CN(C)C)ccc3[nH]2)c2cc(O[C@@H]3O[C@H](CO)[C@H](O)[C@H](O)[C@H]3O)c3ccccc3c21` [(+)-8e], the IC50 turned out to be 5.9 nM in data set [1] (setting [3]) and 7700 nM in data set [1] (setting [4]).

Compound `CC(Cl)C1CN(C(=O)c2cc3cc(NC(=O)CN(C)C)ccc3[nH]2)c2cc(O)c3ccccc3c21` (single isomer, unassigned; (+)) [(+)-4e] gave an IC50 in data set [1] (setting [4]) of 3.8 nM.

Turning to `CC(Cl)C1CN(C(=O)c2cc3cc(OCCN4CCOCC4)ccc3[nH]2)c2cc(O[C@@H]3O[C@H](CO)[C@H](O)[C@H](O)[C@H]3O)c3ccccc3c21` (single isomer, unassigned; (+)) [(+)-8b, [(+)-(1,10)-anti-1-(10-Chloroethyl)-3-[(5-(2-(morpholin-4-yl)ethoxy)-indol-2-yl)carbonyl]-1,2-dihydro-3H-benz[e]indol-5-yl]-β-D-galactopyranoside], the results for the IC50 in data set [1] (setting [3]) and in data set [1] (setting [4]) were 2.5 nM and 1500 nM, respectively.

For `CC(Cl)C1CN(C(=O)c2cc3cc(OCC4CCN(C)CC4)ccc3[nH]2)c2cc(O)c3ccccc3c21` (single isomer, unassigned; (+)) [(+)-4d, (+)-{(1,10)-anti-1-(10-Chloroethyl)-5-hydroxy-3-[(5-((1-methylpiperidin-4-yl)methoxy)indol-2-yl)carbonyl]-1,2-dihydro-3H-benz[e]indole-hydrochloride}], inhibition in data set [1] (setting [4]) was half-maximal at 0.8 nM (IC50).

`COc1cc2[nH]c(C(=O)N3CC(C(C)Cl)c4c3cc(O)c3ccccc43)cc2cc1OCCN(C)C` (single isomer, unassigned; (+)) [(+)-4c, (+)-{(1,10)-anti-1-(10-Chloroethyl)-5-hydroxy-3-[(5-(2-(N,N-dimethylamino)ethoxy)-6-methoxy-indol-2-yl)carbonyl]-1,2-dihydro-3H-benz[e]indole-hydrochloride}] returned an IC50 in data set [1] (setting [4]) of 0.2 nM.
